Drawing on patent US20220313701A1, “MODULATORS OF TREX1” (Constellation Pharmaceuticals, Inc., priority 2019, published 2022), this text covers IC50 for 22 compounds.

One assay addresses T1, full length human TREX1 (Homo sapiens, UniProt Q9NSU2).
T1 construct: N-terminally His-Tev tagged full length human TREX1; His-Tev (His tag with TEV site) (N); made in house; host or cells: E. coli
T1 sequence (Q9NSU2 1-314): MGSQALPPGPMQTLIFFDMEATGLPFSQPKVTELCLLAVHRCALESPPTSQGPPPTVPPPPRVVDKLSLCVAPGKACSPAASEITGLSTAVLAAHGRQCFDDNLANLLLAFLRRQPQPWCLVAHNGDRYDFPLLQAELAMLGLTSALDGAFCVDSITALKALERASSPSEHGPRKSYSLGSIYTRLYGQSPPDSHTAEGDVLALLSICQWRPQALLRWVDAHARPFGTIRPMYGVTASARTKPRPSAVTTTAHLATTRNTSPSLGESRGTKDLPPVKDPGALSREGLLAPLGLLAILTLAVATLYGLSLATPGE
The assay is described as follows: TREX1 Biochemical Assay (fluorescence assay, degradation of dsDNA substrate). The note with it: 150 pM TREX1, 60 nM dsDNA substrate, 25 minutes at room temperature. The protocol:
Degradation of the dsDNA liberates free fluorophore to produce a fluorescent signal. Specifically, 7.5 μL of N-terminally His-Tev tagged full length human TREX1 (expressed in E. coli and purified in house) in reaction buffer (50 mM Tris (pH 7.4), 150 mM NaCl, 2 mM DTT, 0.1 mg/mL BSA, 0.01% (v/v) Tween-20 and either 100 mM MgCl2) was added to a 384-well Black ProxiPlate Plus (Perkin Elmer) which already contained compound (150 nL) at varying concentrations as a 10 point dose-response in DMSO. To this was added 7.5 μL of dsDNA substrate (Strand A: 5′ TEX615/GCT AGG CAG 3′; Strand B: 5′ CTG CCT AGC/IAbRQSp (Integrated DNA Technologies)) in reaction buffer. Final concentrations were 150 pM TREX1, 60 nM dsDNA substrate in reaction buffer with 1.0% DMSO (v/v). After 25 minutes at room temperature, reactions were quenched by the addition of 5 μL of stop buffer (same as reaction buffer plus 200 mM EDTA). Final concentrations in the quenched reaction were 112.5 pM TREX1, 45 nM DNA and 50 mM EDTA in a volume of 20 μL. After a 5-minute incubation at room temperature, plates were read in a laser sourced Envision (Perkin-Elmer), measuring fluorescence at 615 nm following excitation w/570 nm light. IC50 values were calculated by comparing the measured fluorescence at 615 nm ratio relative to control wells pre-quenched w/stop buffer (100% inhibition) and no inhibitor (0% inhibition) controls as using non-linear least square four parameter fits and either Genedata or GraphPad Prism (GraphPad Software, Inc.).

Assay [1] deals with T2, human TREX2 (residues M44-A279) (Homo sapiens, UniProt Q9BQ50).
T2 construct: human TREX2 (residues M44-A279, expressed in E. coli); His-Tev (His tag with TEV site) (N); made in house; host or cells: E. coli
T2 sequence (Q9BQ50 44-279 isoform Q9BQ50-1): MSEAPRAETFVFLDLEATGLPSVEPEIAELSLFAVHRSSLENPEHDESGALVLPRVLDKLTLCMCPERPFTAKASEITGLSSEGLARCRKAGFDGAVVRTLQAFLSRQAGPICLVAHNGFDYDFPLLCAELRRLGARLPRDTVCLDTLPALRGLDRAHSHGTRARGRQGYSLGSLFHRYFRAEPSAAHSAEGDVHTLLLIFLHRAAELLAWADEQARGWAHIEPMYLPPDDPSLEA
The assay is described as follows: TREX2 Biochemical Assay (fluorescence assay, degradation of dsDNA substrate). The note with it: 2.5 nM TREX2, 60 nM dsDNA substrate, 25 minutes at room temperature. The protocol: Degradation of the dsDNA liberates free fluorophore to produce a fluorescent signal. Specifically, 7.5 μL of N-terminally His-Tev tagged human TREX2 (residues M44-A279, expressed in E. coli and purified in house) in reaction buffer (50 mM Tris (pH 7.4), 150 mM NaCl, 2 mM DTT, 0.1 mg/mL BSA, 0.01% (v/v) Tween-20 and 100 mM MgCl2) was added to a 384-well Black ProxiPlate Plus (Perkin Elmer) which already contained compound (150 nL) at varying concentrations as a 10 point dose-response in DMSO. To this was added 7.5 μL of dsDNA substrate (Strand A: 5′ TEX615/GCT AGG CAG 3′; Strand B: 5′ CTG CCT AGC/IAbRQSp (IDT)) in reaction buffer. Final concentrations were 2.5 nM TREX2, 60 nM dsDNA substrate in reaction buffer with 1.0% DMSO (v/v). After 25 minutes at room temperature, reactions were quenched by the addition of 5 μL of stop buffer (same as reaction buffer plus 200 mM EDTA). Final concentrations in the quenched reaction mixture were […] TREX2, 45 nM DNA and 50 mM EDTA in a volume of 20 μL. After a 5-minute incubation at room temperature, plates were read in a laser sourced Envision (Perkin-Elmer), measuring fluorescence at 615 nm following excitation w/570 nm light. IC50 values were calculated by comparing the measured fluorescence at 615 nm ratio relative to control wells pre-quenched w/stop buffer (100% inhibition) and no inhibitor (0% inhibition) controls as using non-linear least square four parameter fits and either Genedata or GraphPad Prism (GraphPad Software, Inc.).

In the case of `Cc1nn(C)cc1-c1cncc(N2CC[C@@](O)(c3ccc(F)c(F)c3)C[C@@H]2C)n1` (racemic) [Example 102, (rac)-cis-4-(3,4-difluorophenyl)-1-(6-(1,3-dimethyl-1H-pyrazol-4-yl)pyrazin-2-yl)-2-methylpiperidin-4-ol], the figures for the IC50 (at full length human TREX1; in assay [1]) were 1 to 10 µM and > 100 µM, respectively.
On to `Cc1nn(C)cc1-c1cncc(N2CC[C@@](O)(c3ccc(F)c(F)c3)C[C@H]2C)n1` (racemic) [Example 103, (rac)-trans-4-(3,4-difluorophenyl)-1-(6-(1,3-dimethyl-1H-pyrazol-4-yl)pyrazin-2-yl)-2-methylpiperidin-4-ol], for which the IC50 at full length human TREX1 is 1 to 10 µM; in assay [1], > 100 µM.
For `OC1(c2ccc(Cl)cc2)CCN(c2cncc(-n3cccn3)n2)CC1` [Example 1, 1-(6-(1H-pyrazol-1-yl)pyrazin-2-yl)-4-(4-chlorophenyl)piperidin-4-ol], the IC50 on full length human TREX1 lay in the range of 1 to 10 µM; in assay [1], 10 to 100 µM.
The matching figures for `COc1ccc(C2(O)CCN(c3cncc(-n4cccn4)n3)CC2)cc1` [Example 2, 1-(6-(1H-pyrazol-1-yl)pyrazin-2-yl)-4-(4-methoxyphenyl)piperidin-4-ol]: > 10 µM and > 100 µM.
The matching figures for `OC1(c2ccccc2F)CCN(c2cncc(-n3cccn3)n2)CC1` [Example 3, 1-(6-(1H-pyrazol-1-yl)pyrazin-2-yl)-4-(2-fluorophenyl)piperidin-4-ol]: > 10 µM and > 100 µM.
The matching figures for `Cn1cc(-c2cncc(N3CCC(O)(c4ccc(F)c(F)c4)CC3)n2)cn1` [Example 4, 4-(3,4-difluorophenyl)-1-(6-(1-methyl-1H-pyrazol-4-yl)pyrazin-2-yl)piperidin-4-ol]: 0.1 to 1 µM and 10 to 100 µM.
Regarding `Cn1cc(-c2cncc(N3CCC(O)(Cc4ccccc4)CC3)n2)cn1` [Example 5, 4-benzyl-1-(6-(1-methyl-1H-pyrazol-4-yl)pyrazin-2-yl)piperidin-4-ol], the IC50 is > 10 µM against full length human TREX1 and > 100 µM in assay [1].
In the case of `Cn1cc(-c2cncc(N3CCC(O)(CCc4ccccc4)CC3)n2)cn1` [Example 6, 1-(6-(1-methyl-1H-pyrazol-4-yl)pyrazin-2-yl)-4-phenethylpiperidin-4-ol], the IC50 against full length human TREX1 was > 10 µM; in assay [1], > 100 µM.
As to `Cn1cc(-c2cncc(N3CCC(O)(c4ccc(F)cc4)CC3)n2)cn1` [Example 7, 4-(4-fluorophenyl)-1-(6-(1-methyl-1H-pyrazol-4-yl)pyrazin-2-yl)piperidin-4-ol], the values for the concentration for half-maximal inhibition (IC50) (against full length human TREX1; in assay [1]) were 1 to 10 µM and > 100 µM, respectively.
Consider `Cc1nn(C)cc1-c1cncc(N2CCC(O)(c3ccc(F)cc3)CC2)n1` [Example 8, 1-(6-(1,3-dimethyl-1H-pyrazol-4-yl)pyrazin-2-yl)-4-(4-fluorophenyl)piperidin-4-ol], for which the concentration for half-maximal inhibition (IC50) on full length human TREX1 is 0.1 to 1 µM; in assay [1], > 100 µM.
The matching figures for `Cc1nn(C)cc1-c1cncc(N2CCC(O)(c3ccc(F)c(F)c3)CC2)n1` [Example 9, 4-(3,4-difluorophenyl)-1-(6-(1,3-dimethyl-1H-pyrazol-4-yl)pyrazin-2-yl)piperidin-4-ol]: < 0.1 µM and 10 to 100 µM.
Turning to `Cn1cc(-c2cncc(N3CCC(O)(c4ccc(F)c(F)c4)CC3)n2)c(C(F)(F)F)n1` [Example 10, 4-(3,4-difluorophenyl)-1-(6-(1-methyl-3-(trifluoromethyl)-1H-pyrazol-4-yl)pyrazin-2-yl)piperidin-4-ol], the figures for the half-maximal inhibitory concentration (IC50) (on full length human TREX1; in assay [1]) were < 0.1 µM and 10 to 100 µM, respectively.
As to `Cn1cc(-c2cncc(N3CCC(O)(c4ccc(F)c(F)c4)CC3)n2)c(C2CC2)n1` [Example 11, 1-(6-(3-cyclopropyl-1-methyl-1H-pyrazol-4-yl)pyrazin-2-yl)-4-(3,4-difluorophenyl)piperidin-4-ol], the IC50 against full length human TREX1 lay within 0.1 to 1 µM; in assay [1], 10 to 100 µM.
The matching figures for `Cc1c(-c2cncc(N3CCC(O)(c4ccc(F)cc4)CC3)n2)cnn1C` [Example 12, 1-(6-(1,5-dimethyl-1H-pyrazol-4-yl)pyrazin-2-yl)-4-(4-fluorophenyl)piperidin-4-ol]: 1 to 10 µM and > 100 µM.
As to `OC1(c2ccc(F)cc2)CCN(c2cncc(-c3cnn(C(F)F)c3)n2)CC1` [Example 13, 1-(6-(1-(difluoromethyl)-1H-pyrazol-4-yl)pyrazin-2-yl)-4-(4-fluorophenyl)piperidin-4-ol], the results for the IC50 (against full length human TREX1; in assay [1]) were 1 to 10 µM and > 100 µM, respectively.
Take `OC1(c2ccc(F)cc2)CCN(c2cncc(-c3cnn(Cc4ccccc4)c3)n2)CC1` [Example 14, 1-(6-(1-benzyl-1H-pyrazol-4-yl)pyrazin-2-yl)-4-(4-fluorophenyl)piperidin-4-ol]: the concentration for half-maximal inhibition (IC50) at full length human TREX1 is 1 to 10 µM; in assay [1] it was > 100 µM.
Consider `Cc1ccc(-c2cncc(N3CCC(O)(c4ccc(F)cc4)CC3)n2)cn1` [Example 15, 4-(4-fluorophenyl)-1-(6-(6-methylpyridin-3-yl)pyrazin-2-yl)piperidin-4-ol], for which the IC50 is 0.1 to 1 µM against full length human TREX1 and > 100 µM in assay [1].
As for `OC1(c2ccc(F)cc2)CCN(c2cncc(-c3cccnc3)n2)CC1` [Example 16, 4-(4-fluorophenyl)-1-(6-(pyridin-3-yl)pyrazin-2-yl)piperidin-4-ol], the results for the IC50 (against full length human TREX1; in assay [1]) were 1 to 10 µM and > 100 µM, respectively.
Take `Cc1ccc(-c2cncc(N3CCC(O)(c4ccc(F)c(F)c4)CC3)n2)c(C)n1` [Example 17, 4-(3,4-difluorophenyl)-1-(6-(2,6-dimethylpyridin-3-yl)pyrazin-2-yl)piperidin-4-ol]: the half-inhibitory concentration (IC50) at full length human TREX1 is 0.1 to 1 µM; in assay [1] it was 10 to 100 µM.
As for `OC1(c2ccc(F)cc2)CCN(c2cncc(-c3cncnc3)n2)CC1` [Example 18, 4-(4-fluorophenyl)-1-(6-(pyrimidin-5-yl)pyrazin-2-yl)piperidin-4-ol], the IC50 against full length human TREX1 is 1 to 10 µM; in assay [1] it was > 100 µM.
On to `Cc1noc(C)c1-c1cncc(N2CCC(O)(c3ccc(F)cc3)CC2)n1` [Example 19, 1-(6-(3,5-dimethylisoxazol-4-yl)pyrazin-2-yl)-4-(4-fluorophenyl)piperidin-4-ol], for which the concentration for half-maximal inhibition (IC50) was 1 to 10 µM against full length human TREX1 and > 100 µM in assay [1].
The matching figures for `CN(C)C(=O)c1cccc(-c2cncc(N3CCC(O)(c4ccc(F)cc4)CC3)n2)c1` [Example 20, 3-(6-(4-(4-fluorophenyl)-4-hydroxypiperidin-1-yl)pyrazin-2-yl)-N,N-dimethylbenzamide]: 1 to 10 µM and > 100 µM.

For orientation: IC50 means the concentration that gives 50% inhibition. The low end stands for higher potency, the high end for lower potency.
